Here are results for 18 molecules from patent publication US10100058B2, “Fused heterocyclic compounds as CaM kinase inhibitors” (Gilead Sciences, Inc., priority 2016, dated 2018).

The target of the assay is recombinant CaMKIIδ (Homo sapiens (Human), UniProt Q13557). Kind of assay: CaMKIIδ biochemical assay (HTRF). The note with it: 10 pM CaMKIIδ, 110 nM calmodulin, 12 μM ATP, 1 hour; read-out: CAMKIID-HTRF-384V2 (IC50 - nM). The procedure:
CaMKIIδ Biochemical Assay
The biochemical activity of recombinant CaMKIIδ was measured by monitoring the phosphorylation of a target peptide using Homogenous Time Resolved Fluorescence (HTRF) technology from CisBio Bioassays.
(In general: TR-FRET usually uses a lanthanide donor and a delayed reading to cut background.)
With `CCN(CC)[C@@H](C)CNC(=O)c1cc(-c2cnn3ccc(-c4cccs4)nc23)nc(N2CC[C@H]2C(=O)NC2CC2)c1` [Example 277, 2-((S)-2-(cyclopropylcarbamoyl)azetidin-1-yl)-N—((S)-2-(diethylamino)propyl)-6-(5-(thiophen-2-yl)pyrazolo[1,5-a]pyrimidin-3-yl)isonicotinamide], the IC50 amounted to 0.51 nM.

On to `CCN(CC)[C@@H](C)CNC(=O)c1cc(-c2cnn3ccc(-c4cccs4)nc23)nc(N2CC[C@H]2C(=O)NCC2CC2)c1` [Example 278, 2-((S)-2-((cyclopropylmethyl)carbamoyl)azetidin-1-yl)-N—((S)-2-(diethylamino)propyl)-6-(5-(thiophen-2-yl)pyrazolo[1,5-a]pyrimidin-3-yl)isonicotinamide], for which the IC50 is 0.41 nM.

With `CCN(CC)[C@@H](C)CNC(=O)c1cc(-c2cnn3ccc(-c4cccs4)nc23)nc(N2CC[C@H]2C(=O)N(C)C)c1` [Example 279, N—((S)-2-(diethylamino)propyl)-2-((S)-2-(dimethylcarbamoyl)azetidin-1-yl)-6-(5-(thiophen-2-yl)pyrazolo[1,5-a]pyrimidin-3-yl)isonicotinamide], the half-inhibitory concentration (IC50) came out at 0.17 nM.

For `CCN(CC)C(=O)[C@@H]1CCN1c1cc(C(=O)NC[C@H](C)N(CC)CC)cc(-c2cnn3ccc(-c4cccs4)nc23)n1` [Example 280, N—((S)-2-(diethylamino)propyl)-2-((S)-2-(diethylcarbamoyl)azetidin-1-yl)-6-(5-(thiophen-2-yl)pyrazolo[1,5-a]pyrimidin-3-yl)isonicotinamide], the IC50 was 0.45 nM.

Regarding `CCN(CC)[C@@H](C)CNC(=O)c1cc(-c2cnn3ccc(-c4cccs4)nc23)nc(N2CC[C@H]2C(=O)NCCF)c1` [Example 281, N—((S)-2-(diethylamino)propyl)-2-((S)-2-((2-fluoroethyl)carbamoyl)azetidin-1-yl)-6-(5-(thiophen-2-yl)pyrazolo[1,5-a]pyrimidin-3-yl)isonicotinamide], the IC50 amounted to 0.46 nM.

In the case of `CCN(CC)[C@@H](C)CNC(=O)c1cc(-c2cnn3ccc(-c4cccs4)nc23)nc(N2CC[C@H]2C(=O)NCC(F)F)c1` [Example 282, N—((S)-2-(diethylamino)propyl)-2-((S)-2-((2,2-difluoroethyl)carbamoyl)azetidin-1-yl)-6-(5-(thiophen-2-yl)pyrazolo[1,5-a]pyrimidin-3-yl)isonicotinamide], the IC50 was found to be 0.47 nM.

For the molecule `CCN(CC)[C@@H](C)CNC(=O)c1cc(-c2cnn3ccc(-c4cccs4)nc23)nc(N2CC[C@H]2C(=O)NCC(F)(F)F)c1` [Example 283, N—((S)-2-(diethylamino)propyl)-2-(5-(thiophen-2-yl)pyrazolo[1,5-a]pyrimidin-3-yl)-6-((S)-2-((2,2,2-trifluoroethyl)carbamoyl)azetidin-1-yl)isonicotinamide], the IC50 was 1.37 nM.

With `CCN(CC)[C@@H](C)CNC(=O)c1cc(-c2cnn3ccc(-c4cccs4)nc23)nc(N2CC[C@H]2C(=O)N2CC(F)C2)c1` [Example 284, N—((S)-2-(diethylamino)propyl)-2-((S)-2-(3-fluoroazetidine-1-carbonyl)azetidin-1-yl)-6-(5-(thiophen-2-yl)pyrazolo[1,5-a]pyrimidin-3-yl)isonicotinamide], the IC50 is 0.18 nM.

Consider `CCN(CC)[C@@H](C)CNC(=O)c1cc(-c2cnn3ccc(-c4cccs4)nc23)nc(N2CC[C@H]2C(=O)N2CC3CC3C2)c1` (stereo partly drawn) [Example 285, 2-((2S)-2-(3-azabicyclo[3.1.0]hexane-3-carbonyl)azetidin-1-yl)-N—((S)-2-(diethylamino)propyl)-6-(5-(thiophen-2-yl)pyrazolo[1,5-a]pyrimidin-3-yl)isonicotinamide], for which the IC50 stood at 0.42 nM.

On to `CCN(CC)[C@@H](C)CNC(=O)c1cc(-c2cnn3ccc(-c4cccs4)nc23)nc(N2CC[C@H]2C(=O)N2CC(NS(C)(=O)=O)C2)c1` [Example 286, N—((S)-2-(diethylamino)propyl)-2-((S)-2-(3-(methylsulfonamido)azetidine-1-carbonyl)azetidin-1-yl)-6-(5-(thiophen-2-yl)pyrazolo[1,5-a]pyrimidin-3-yl)isonicotinamide], for which the IC50 was determined as 0.16 nM.

`CCN(CC)[C@@H](C)CNC(=O)c1cc(-c2cnn3ccc(-c4cccs4)nc23)nc(N2CC[C@H]2C(=O)N(C)OC)c1` [Example 287, N—((S)-2-(diethylamino)propyl)-2-((S)-2-(methoxy(methyl)carbamoyl)azetidin-1-yl)-6-(5-(thiophen-2-yl)pyrazolo[1,5-a]pyrimidin-3-yl)isonicotinamide]: the IC50 was 0.33 nM.

For the molecule `CCN(CC)[C@@H](C)CNC(=O)c1cc(-c2cnn3ccc(-c4cccs4)nc23)nc(N2CC[C@H]2C(=O)N2CCCC2)c1` [Example 288, N—((S)-2-(diethylamino)propyl)-2-((S)-2-(pyrrolidine-1-carbonyl)azetidin-1-yl)-6-(5-(thiophen-2-yl)pyrazolo[1,5-a]pyrimidin-3-yl)isonicotinamide], the IC50 came to 0.29 nM.

Consider `CCN(CC)[C@@H](C)CNC(=O)c1cc(-c2cnn3ccc(-c4cccs4)nc23)nc(N2CC[C@H]2C(=O)NOC)c1` [Example 289, N—((S)-2-(diethylamino)propyl)-2-((S)-2-(methoxycarbamoyl)azetidin-1-yl)-6-(5-(thiophen-2-yl)pyrazolo[1,5-a]pyrimidin-3-yl)isonicotinamide], for which the IC50 worked out at 0.65 nM.

For the molecule `CCN(CC)[C@@H](C)CNC(=O)c1cc(-c2cnn3ccc(-c4cccs4)nc23)nc(N2CC[C@@H]2C(=O)NC)c1` [Example 290, N—((S)-2-(diethylamino)propyl)-2-((R)-2-(methylcarbamoyl)azetidin-1-yl)-6-(5-(thiophen-2-yl)pyrazolo[1,5-a]pyrimidin-3-yl)isonicotinamide], the IC50 was determined as 14.1 nM.

Take `CCN(CC)[C@@H](C)CNC(=O)c1cc(-c2cnn3ccc(-c4cccs4)nc23)nc(N2CC[C@H]2C(=O)Nc2nccs2)c1` [Example 291, N—((S)-2-(diethylamino)propyl)-2-((S)-2-(thiazol-2-ylcarbamoyl)azetidin-1-yl)-6-(5-(thiophen-2-yl)pyrazolo[1,5-a]pyrimidin-3-yl)isonicotinamide]: the IC50 worked out at 3.55 nM.

For `CCN(CC)[C@@H](C)CNC(=O)c1cc(-c2cnn3ccc(-c4cccs4)nc23)nc(N2CC[C@H]2C(=O)N2CC(C)(C)C2)c1` [Example 292, N—((S)-2-(diethylamino)propyl)-2-((S)-2-(3,3-dimethylazetidine-1-carbonyl)azetidin-1-yl)-6-(5-(thiophen-2-yl)pyrazolo[1,5-a]pyrimidin-3-yl)isonicotinamide], the IC50 is 0.58 nM.

With `CCN(CC)[C@@H](C)CNC(=O)c1cc(-c2cnn3ccc(-c4cccs4)nc23)nc(N2CC[C@H]2C(=O)N2CCOCC2)c1` [Example 293, N—((S)-2-(diethylamino)propyl)-2-((S)-2-(morpholine-4-carbonyl)azetidin-1-yl)-6-(5-(thiophen-2-yl)pyrazolo[1,5-a]pyrimidin-3-yl)isonicotinamide], the IC50 was found to be 0.16 nM.

As to `CCN(CC)[C@@H](C)CNC(=O)c1cc(-c2cnn3ccc(-c4cccs4)nc23)nc(N2CC[C@H]2C(=O)N2CC(F)(F)C2)c1` [Example 294, N—((S)-2-(diethylamino)propyl)-2-((S)-2-(3,3-difluoroazetidine-1-carbonyl)azetidin-1-yl)-6-(5-(thiophen-2-yl)pyrazolo[1,5-a]pyrimidin-3-yl)isonicotinamide], the IC50 was 0.22 nM.

As a reminder, the IC50 is the concentration that gives 50% inhibition.
